Results as given in ChEMBL document CHEMBL1148116, “Thorectandrols C, D, and E, new sesterterpenes from the marine sponge Thorectandra sp” (J Nat Prod, 2002).
Converted amounts (≈) assume the structure as drawn. The source made the active and inactive calls. No cut-off for these calls is given here.

Tests used:
Format in all cases: functional, cell-based
[1] = test system: 786-0; assay: Cytotoxicity against human 786-O cells at 100 ug/mL
[2] = test system: LOX IMVI; assay: Cytotoxicity against human LOXIMVI cells at 100 ug/mL
[3] = test system: A549; assay: Cytotoxicity against human A549 cells at 100 ug/mL
[4] = test system: KM12; assay: Cytotoxicity against human KM12 cells at 100 ug/mL
[5] = test system: COLO 205; assay: Cytotoxicity against human COLO205 cells at 100 ug/mL
[6] = test system: MOLT-4; assay: Cytotoxicity against human MOLT4 cells at 100 ug/mL
[7] = test system: IGROV-1; assay: Cytotoxicity against human IGROV1 cells at 100 ug/mL
[8] = test system: Malme-3M; assay: Cytotoxicity against human MALME-3M cells at 100 ug/mL
[9] = test system: NCI-H460; assay: Cytotoxicity against human H460 cells at 100 ug/mL
[10] = test system: OVCAR-3; assay: Cytotoxicity against human OVCAR-3 cells at 100 ug/mL
[11] = test system: MCF7; assay: Cytotoxicity against human MCF7 cells at 100 ug/mL
[12] = test system: SNB-19; assay: Cytotoxicity against human SNB19 cells at 100 ug/mL
[13] = test system: OVCAR-3; assay: Cytotoxicity against human OVCAR-3 cells
[14] = test system: SNB-19; assay: Cytotoxicity against human SNB19 cells
[15] = test system: KM12; assay: Cytotoxicity against human KM12 cells
[16] = test system: MOLT-4; assay: Cytotoxicity against human MOLT4 cells
[17] = test system: MCF7; assay: Cytotoxicity against human MCF7 cells
[18] = test system: LOX IMVI; assay: Cytotoxicity against human LOXIMVI cells
[19] = test system: Malme-3M; assay: Cytotoxicity against human MALME-3M cells
[20] = test system: COLO 205; assay: Cytotoxicity against human COLO205 cells
[21] = Cytotoxicity against human 786-O cells; settings: 786-0
[22] = test system: NCI-H460; assay: Cytotoxicity against human H460 cells
[23] = test system: IGROV-1; assay: Cytotoxicity against human IGROV1 cells
[24] = test system: A549; assay: Cytotoxicity against human A549 cells
[25] = Homo sapiens, MCF7, read-out: IC50

Compound | Activity [1] | Activity [2] | Activity [3] | Activity [4] | Activity [5] | Activity [6] | Activity [7] | Activity [8] | IC50 [13] | IC50 [14] | IC50 [15] | IC50 [16] | IC50 [17, 25] | IC50 [18] | IC50 [19] | IC50 [20] | IC50 [21] | IC50 [22] | IC50 [23] | IC50 [24] | also measured
C=C1CCC[C@H]2[C@](C)(CC/C(C)=C/C[C@@H](O)C3=CC(=O)OC3)[C@@H](C)[C@H](O)C[C@]12C | inactive | inactive | inactive | inactive | inactive | inactive | inactive | inactive |  |  |  |  |  |  |  |  |  |  |  |  | Activity [9]: inactive; Activity [10]: inactive; Activity [11]: inactive; Activity [12]: inactive
CC(C)=CC1C/C(=C/CC/C(C)=C/CC/C(C)=C/C[C@@H](O)C2=CC(=O)OC2)C(=O)O1 (stereo not given in full) | inactive | inactive | inactive | inactive | inactive | inactive | inactive | inactive |  |  |  |  |  |  |  |  |  |  |  |  | Activity [9]: inactive; Activity [10]: inactive; Activity [11]: inactive; Activity [12]: inactive
CC(C)=CC1C/C(=C\CC/C(C)=C/CC/C(C)=C/CCC2=CC(=O)OC2)C(=O)O1 (stereo not given) | inactive | inactive | inactive | inactive | inactive | inactive | inactive | inactive |  |  |  |  |  |  |  |  |  |  |  |  | Activity [9]: inactive; Activity [10]: inactive; Activity [11]: inactive; Activity [12]: inactive
C=C1CCC[C@H]2[C@](C)(CC/C(C)=C/C=C/C3=CC(=O)OC3O)[C@@H](C)CC[C@]12C (stereo not given in full) [PALAUOLIDE] |  |  |  |  |  |  |  |  | 30 µg/mL (≈ 78 µM) | 52.1 µg/mL (≈ 135 µM) | 14.4 µg/mL (≈ 37.4 µM) | 43.5 µg/mL (≈ 113 µM) | > 100 µg/mL | 51.2 µg/mL (≈ 133 µM) | 37 µg/mL (≈ 96.2 µM) | 23.6 µg/mL (≈ 61.4 µM) | 53 µg/mL (≈ 138 µM) | 10.1 µg/mL (≈ 26.3 µM) | 7.7 µg/mL (≈ 20 µM) | 30 µg/mL (≈ 78 µM) | 
C=C1CCC[C@@H]2[C@@](C)(CC/C(C)=C/C[C@@H](O)C3=CC(=O)OC3O)[C@@H](C)CC[C@@]12C (stereo not given in full) [PALAUOLOL] |  |  |  |  |  |  |  |  | 2.2 µg/mL (≈ 5.46 µM) | 2.1 µg/mL (≈ 5.22 µM) | 1.8 µg/mL (≈ 4.47 µM) | 0.6 µg/mL (≈ 1.49 µM) | 7 µg/mL (≈ 17.4 µM) | 2.4 µg/mL (≈ 5.96 µM) | 0.5 µg/mL (≈ 1.24 µM) | 1.1 µg/mL (≈ 2.73 µM) | 1.4 µg/mL (≈ 3.48 µM) | 1.3 µg/mL (≈ 3.23 µM) | 1.5 µg/mL (≈ 3.73 µM) | > 100 µg/mL | 
C=C1CCC[C@H]2[C@](C)(CC/C(C)=C/C[C@H]3OC(=O)C=C3CO)[C@@H](C)CC[C@]12C [THORECTANDROL A] |  |  |  |  |  |  |  |  | 35 µg/mL (≈ 90.5 µM) | 40 µg/mL (≈ 103 µM) | 40 µg/mL (≈ 103 µM) | 32 µg/mL (≈ 82.8 µM) | 40 µg/mL (≈ 103 µM) | 35 µg/mL (≈ 90.5 µM) | 40 µg/mL (≈ 103 µM) | 37 µg/mL (≈ 95.7 µM) | 30 µg/mL (≈ 77.6 µM) | 35 µg/mL (≈ 90.5 µM) | 31 µg/mL (≈ 80.2 µM) | 35 µg/mL (≈ 90.5 µM) | 
C=C1CCC[C@H]2[C@@](CC/C(C)=C/C[C@H]3OC(=O)CC3CO)(COC(C)=O)[C@@H](C)CC[C@]12C (stereo not given in full) [THORECTANDROL B] |  |  |  |  |  |  |  |  | 70 µg/mL (≈ 157 µM) | 35 µg/mL (≈ 78.4 µM) | 94 µg/mL (≈ 210 µM) | 19 µg/mL (≈ 42.5 µM) | 30 µg/mL (≈ 67.2 µM) | 100 µg/mL (≈ 224 µM) | 30 µg/mL (≈ 67.2 µM) | 23.6 µg/mL (≈ 52.8 µM) | 35 µg/mL (≈ 78.4 µM) | 96 µg/mL (≈ 215 µM) | > 100 µg/mL | 35 µg/mL (≈ 78.4 µM) | 
C=C1CCC[C@H]2[C@](C)(CC/C(C)=C/C[C@@H](O)C3=CC(=O)OC3)[C@@H](C)[C@H](OC(C)=O)C[C@]12C [THORECTANDROL C] |  |  |  |  |  |  |  |  |  |  |  |  |  |  | 30 µg/mL (≈ 67.5 µM) |  | 30 µg/mL (≈ 67.5 µM) |  |  | 30 µg/mL (≈ 67.5 µM) | Activity [13]: inactive; IC50 ([17]; mcf7): Not Active; Activity [18]: inactive
